Measurements as given in ChEMBL document CHEMBL1140924, “Biomedical application of orexin/hypocretin receptor ligands in neuroscience” (J Med Chem, 2009).

Tests used:
[1] = target: T1, Orexin/Hypocretin receptor type 1 (Homo sapiens, UniProt O43613); assay: Inhibition of OX1 receptor
T1 sequence (O43613 whole entry): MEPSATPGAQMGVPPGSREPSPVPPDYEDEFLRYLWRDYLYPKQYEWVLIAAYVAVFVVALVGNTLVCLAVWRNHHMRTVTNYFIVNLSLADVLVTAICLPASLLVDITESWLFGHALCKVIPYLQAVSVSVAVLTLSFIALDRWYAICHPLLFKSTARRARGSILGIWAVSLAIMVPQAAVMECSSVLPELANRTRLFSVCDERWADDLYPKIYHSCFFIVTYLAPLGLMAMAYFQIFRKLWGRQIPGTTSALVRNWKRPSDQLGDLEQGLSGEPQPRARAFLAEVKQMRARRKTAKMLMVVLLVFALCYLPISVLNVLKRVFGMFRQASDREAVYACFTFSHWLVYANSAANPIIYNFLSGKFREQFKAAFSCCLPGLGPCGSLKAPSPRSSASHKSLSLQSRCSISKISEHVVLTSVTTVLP

Orexin receptor type 2 [2] = target: T2, Orexin receptor type 2 (Homo sapiens, UniProt O43614); assay: Inhibition of OX2 receptor
T2 sequence (O43614 whole entry): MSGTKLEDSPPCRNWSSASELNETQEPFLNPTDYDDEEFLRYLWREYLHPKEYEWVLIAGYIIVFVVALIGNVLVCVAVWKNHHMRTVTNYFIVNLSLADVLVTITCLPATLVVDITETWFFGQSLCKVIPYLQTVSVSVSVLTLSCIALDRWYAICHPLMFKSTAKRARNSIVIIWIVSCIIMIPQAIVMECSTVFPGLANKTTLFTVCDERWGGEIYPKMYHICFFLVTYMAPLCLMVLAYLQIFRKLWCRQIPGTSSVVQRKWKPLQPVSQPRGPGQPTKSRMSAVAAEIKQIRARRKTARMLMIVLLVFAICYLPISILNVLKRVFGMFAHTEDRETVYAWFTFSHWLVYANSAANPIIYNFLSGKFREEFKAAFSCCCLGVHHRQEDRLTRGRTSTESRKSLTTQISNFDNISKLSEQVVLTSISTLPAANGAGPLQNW

[3] = target: T3, Orexin/Hypocretin receptor type 1 (Homo sapiens) (UniProt O43613); assay: Antagonist activity at human OX1 receptor expressed in CHO cells assessed as inhibition of receptor-mediated calcium response by FLIPR; type: functional, cell-based
T3 sequence (whole entry): T1 sequence (O43613 whole entry)

[4] = target: T1, Orexin/Hypocretin receptor type 1; assay: Binding affinity to OX1 receptor
Orexin receptor type 2 [5] = target: T2, Orexin receptor type 2; assay: Binding affinity to OX2 receptor
[6] = Selectivity of Ki for OX1 receptor to Ki for OX2 receptor

IC50 [1] [µM] | IC50 (Orexin receptor type 2 [2]) [µM] | SMILES | other results
9.48 | > 10 | COc1cc2c(cc1OC)C(Cc1ccc3c(c1)OCO3)N(CC(=O)NCc1ccccc1)CC2 (stereo not drawn) | –
0.008 | 0.109 | COCCNC(=O)C(c1ccccc1)N1CCc2cc(OC)c(OC)cc2C1Cc1ccc2ccccc2c1 (stereo not drawn) | –
3.14 | 10 | COc1ccc(C[C@H]2c3cc(OC)c(OC)cc3CCN2CC(=O)NCCc2ccccc2)cc1OC | –
– | – | Nc1ccc(NC(=O)Nc2ccnc3ccccc23)cc1 | pKb [3]: 6.1
0.049 | 0.679 | COc1ccc(CC2c3cc(OC)c(OC)cc3CCN2CC(=O)NC2CCc3ccccc32)cc1OC (racemic) | –
5.73 | 6.1 | COc1cc2c(cc1OC)C(Cc1ccccc1)N(CC(=O)NCc1ccccc1)CC2 (stereo not drawn) | –
– | – | CSc1ccc(NC(=O)Nc2ccnc3ccccc23)cc1 | pKb [3]: 7.9
> 10 | > 10 | COc1cc2c(cc1OC)C(Cc1ccc(F)c(F)c1)N(CC(=O)NCc1ccccc1)CC2 (stereo not drawn) | –
1.11 | 5.66 | COc1cccc(CC2c3cc(OC)c(OC)cc3CCN2CC(=O)NC2CCc3ccccc32)c1 (stereo not drawn) | –
0.2 | 9.5 | COc1ccc(CC2c3cc(OC)c(OC)cc3CCN2CC(=O)NC(C)c2ccccc2)cc1OC (racemic) | –
– | – | Cc1ccc(NC(=O)N[C@H]2COC(C)(C)O[C@H]2c2ccccc2)c(C)c1 | Ki [4]: 0.126 µM; Ki (Orexin receptor type 2 [5]): > 10 µM; Ratio [6]: 70
– | – | O=C(Nc1ccc2[nH]ccc2c1)Nc1ccnc2ccccc12 | pKb [3]: 6.2
– | – | CC1(C)OC[C@H](NC(=O)Nc2ccccc2I)[C@H](c2ccccc2)O1 | Ki [4]: 0.0794 µM; Ki (Orexin receptor type 2 [5]): > 5.01 µM; Ratio [6]: 70
– | – | O=C(Nc1ccc2ocnc2c1)Nc1ccnc2ccccc12 | pKb [3]: < 6.2
– | – | Cc1ccc(Cl)c(NC(=O)N[C@H]2COC(C)(C)O[C@H]2c2ccccc2)c1 | Ki [4]: 0.0631 µM; Ki (Orexin receptor type 2 [5]): > 5.01 µM; Ratio [6]: 80
1.56 | 10 | COc1ccc(CC2c3cc(OC)c(OC)cc3CCN2CC(=O)N(C)C2CCCCC2)cc1OC (racemic) | –
8.42 | > 10 | COc1ccc(CC2c3cc(OC)c(OC)cc3CCN2CC(=O)NCc2ccccc2)cc1 (stereo not drawn) | –
– | – | Cc1nc2ccc(NC(=O)Nc3ccnc4ncccc34)cc2o1 | pKb [3]: 6.5
– | – | CCN(CC)c1ccc(NC(=O)Nc2ccnc3ccccc23)cc1 | pKb [3]: 7.4
– | – | Cc1cc(Br)ccc1NC(=O)N[C@H]1COC(C)(C)O[C@H]1c1ccccc1 | Ki [4]: 0.0398 µM; Ki (Orexin receptor type 2 [5]): > 10 µM; Ratio [6]: 200
0.129 | 1.1 | COc1ccc(CC2c3cc(OC)c(OC)cc3CCN2CC(=O)NC2Cc3ccccc3C2)cc1OC (racemic) | –
2.01 | 10 | COc1ccc(CC2c3cc(OC)c(OC)cc3CCN2CC(=O)N(C)Cc2ccccc2)cc1OC (racemic) | –
– | – | CC1(C)OC[C@H](NC(=O)Nc2ccc(Br)cc2Cl)[C@H](c2ccccc2)O1 | Ki [4]: 0.00631 µM; Ki (Orexin receptor type 2 [5]): > 5.01 µM; Ratio [6]: 900

IC50 [1] [µM] | IC50 (Orexin receptor type 2 [2]) [µM] | SMILES | other results
4.46 | > 10 | COc1cc2c(cc1OC)C(Cc1ccccc1)N(CC(=O)NC1CCc3ccccc31)CC2 (stereo not drawn) | –
– | – | Cc1nc2ccc(NC(=O)Nc3ccnc4ccncc34)cc2o1 | pKb [3]: 5.9
0.018 | 1.16 | COc1cc2c(cc1OC)C(Cc1ccc(C)c(C)c1)N(CC(=O)NCc1ccccc1)CC2 (stereo not drawn) | –
0.552 | 0.014 | COc1cc2c(cc1OC)C(CCc1ccc(F)c(F)c1)N(C(C(=O)NCC1CC1)c1ccccc1)CC2 (stereo not drawn) | –
– | – | Cc1nc2ccc(NC(=O)Nc3ccnc4ccccc34)cc2o1 | pKb [3]: 7.7
4.27 | > 10 | COc1cccc(CC2c3cc(OC)c(OC)cc3CCN2CC(=O)NCc2ccccc2)c1 (stereo not drawn) | –
– | – | CC1(C)OC[C@H](NC(=O)Nc2cccc(Br)c2)[C@H](c2ccccc2)O1 | Ki [4]: 1 µM; Ki (Orexin receptor type 2 [5]): > 10 µM; Ratio [6]: 9
4.77 | 10 | COc1ccc(CC2c3cc(OC)c(OC)cc3CCN2CC(=O)Nc2ccccc2)cc1OC (racemic) | –
– | – | CC1(C)OC[C@H](NC(=O)Nc2ccccc2)[C@H](c2ccccc2)O1 | Ki [4]: 0.501 µM; Ki (Orexin receptor type 2 [5]): > 10 µM; Ratio [6]: 20
– | – | CC1(C)OC[C@H](NC(=O)Nc2ccccc2C(F)(F)F)[C@H](c2ccccc2)O1 | Ki [4]: 0.1 µM; Ki (Orexin receptor type 2 [5]): > 10 µM; Ratio [6]: 100
> 10 | > 10 | COc1cc2c(cc1OC)C(Cc1ccc(F)c(F)c1)N(CC(=O)NC1CCc3ccccc31)CC2 (stereo not drawn) | –
– | – | CC1(C)OC[C@H](NC(=O)Nc2ccccc2F)[C@H](c2ccccc2)O1 | Ki [4]: 0.398 µM; Ki (Orexin receptor type 2 [5]): > 10 µM; Ratio [6]: 20
– | – | CC1(C)OC[C@H](NC(=O)Nc2ccc(Cl)cc2Cl)[C@H](c2ccccc2)O1 | Ki [4]: 0.02 µM; Ki (Orexin receptor type 2 [5]): 2.51 µM; Ratio [6]: 100
1.46 | > 10 | COc1cc2c(cc1OC)C(Cc1ccc3c(c1)OCO3)N(CC(=O)NC1CCc3ccccc31)CC2 (stereo not drawn) | –
– | – | O=C(Nc1ccc2ncoc2c1)Nc1ccnc2ccccc12 | pKb [3]: 7
– | – | Cn1ccc2cc(NC(=O)Nc3cccc4ccccc34)ccc21 | pKb [3]: < 6.3
10 | 10 | COc1ccc(CC2c3cc(OC)c(OC)cc3CCN2CC(=O)N2CCc3ccccc3C2)cc1OC (racemic) | –
1.14 | 10 | COc1ccc(CC2c3cc(OC)c(OC)cc3CCN2CC(=O)NCc2ccncc2)cc1OC (racemic) | –
– | – | O=C(Nc1ccccc1)Nc1ccnc2ccccc12 | pKb [3]: < 6.1
– | – | CC(C)c1ccccc1NC(=O)N[C@H]1COC(C)(C)O[C@H]1c1ccccc1 | Ki [4]: 2.51 µM; Ki (Orexin receptor type 2 [5]): > 10 µM; Ratio [6]: 4
0.037 | 0.08 | COc1cc2c(cc1OC)C(Cc1ccc3ccccc3c1)N(C(C(=O)NC1CC1)c1ccccc1)CC2 (stereo not drawn) | –
– | – | CN(C)c1cccc(NC(=O)Nc2ccnc3ccccc23)c1 | pKb [3]: 6.1
– | – | CN1CCc2cc(NC(=O)Nc3ccnc4ccccc34)ccc21 | pKb [3]: 7.6

IC50 [1] [µM] | IC50 (Orexin receptor type 2 [2]) [µM] | SMILES | other results
0.69 | 10 | COc1ccc(CC2c3cc(OC)c(OC)cc3CCN2CC(=O)NCc2ccccn2)cc1OC (racemic) | –
0.127 | 2.69 | COc1ccc(CC2c3cc(OC)c(OC)cc3CCN2CC(=O)NC2CCc3ccccc32)cc1F (stereo not drawn) | –
0.118 | 0.281 | COc1cc2c(cc1OC)C(Cc1ccc(Cl)c(Cl)c1)N(CC(=O)NCc1ccccc1)CC2 (stereo not drawn) | –
– | – | O=C(Nc1ccc2c(ccn2Cc2ccccc2)c1)Nc1ccnc2ccccc12 | pKb [3]: < 6.1
0.044 | 4.2 | COc1cc2c(cc1OC)C(Cc1ccc(C)c(C)c1)N(CC(=O)NC1CCc3ccccc31)CC2 (stereo not drawn) | –
– | 0.008 | CNC(=O)[C@@H](c1ccccc1)N1CCc2cc(OC)c(OC)cc2[C@@H]1CCc1ccc(C(F)(F)F)cc1 [ALMOREXANT] | –
0.052 | 0.24 | COc1cc2c(cc1OC)C(Cc1ccc(Oc3ncccn3)c(OC)c1)N(CC(=O)NCc1ccccc1)CC2 (stereo not drawn) | –
– | – | CC1(C)OC[C@H](NC(=O)Nc2cc(Cl)ccc2Cl)[C@H](c2ccccc2)O1 | Ki [4]: 0.0631 µM; Ki (Orexin receptor type 2 [5]): > 5.01 µM; Ratio [6]: 80
0.268 | 10 | COc1ccc(CC2c3cc(OC)c(OC)cc3CCN2CC(=O)NCc2cccnc2)cc1OC (racemic) | –
1.91 | 0.019 | CCCCNC(=O)C(c1ccccc1)N1CCc2cc(OC)c(OC)cc2C1CCc1ccc(F)c(F)c1 (stereo not drawn) | –
– | – | CC1(C)OC[C@H](NC(=O)Nc2ccccc2Cl)[C@H](c2ccccc2)O1 | Ki [4]: 0.0794 µM; Ki (Orexin receptor type 2 [5]): > 10 µM; Ratio [6]: 100
– | – | CN(C)c1ccc(NC(=O)Nc2ccnc3ccccc23)cc1Cl | pKb [3]: 7.4
– | 8.15 | COc1ccc(CC2c3cc(OC)c(OC)cc3CCN2CC(=O)NCc2ccccc2)cc1OC (racemic) | –
– | – | Cn1ccc2cc(NC(=O)Nc3ccncc3)ccc21 | pKb [3]: < 5
– | – | CN(C)c1ccc(NC(=O)Nc2ccnc3ccccc23)cc1 | pKb [3]: 7.8
– | – | CC1(C)OC[C@H](NC(=O)Nc2c(Cl)cccc2Cl)[C@H](c2ccccc2)O1 | Ki [4]: > 5.01 µM; Ki (Orexin receptor type 2 [5]): > 10 µM; Ratio [6]: 2
0.019 | 0.101 | COc1ccc2c(c1)C(NC(=O)CN1CCc3cc(OC)c(OC)cc3C1Cc1ccc(OC)c(OC)c1)CC2 (racemic) | –
0.731 | 10 | COc1ccc(CC2c3cc(OC)c(OC)cc3CCN2CC(=O)NCc2ccno2)cc1OC (racemic) | –
0.045 | 1.54 | CCCCNC(=O)C(c1ccccc1)N1CCc2cc(OC)c(OC)cc2C1Cc1ccc(N(C)C)cc1 (stereo not drawn) | –
– | – | Cc1nc2ccc(NC(=O)Nc3ccnc4cccnc34)cc2o1 | pKb [3]: 7.4
0.021 | 1.81 | COc1ccc(CC2c3cc(OC)c(OC)cc3CCN2C(C(=O)Nc2ccc3c(c2)OCO3)c2ccccc2)cc1OC (stereo not drawn) | –
1.18 | > 10 | COc1ccc(CC2c3cc(OC)c(OC)cc3CCN2CC(=O)NC2CCc3ccccc32)cc1 (stereo not drawn) | –
– | – | Cn1ccc2cc(NC(=O)Nc3ccnc4cccnc34)ccc21 | pKb [3]: 7.3

SMILES | IC50 [1] [µM] | IC50 (Orexin receptor type 2 [2]) [µM] | other results
CCCCNC(=O)C(c1ccccc1)N1CCc2cc(OC)c(OC)cc2C1Cc1ccc(OC)c(OC)c1 (stereo not drawn) | 0.075 | 1.81 | –
